{
  "source": "patent US10434174B2",
  "about": "“Combination therapies using platinum agents and agents that target tumor-associated stroma or tumor cells” (BIOMED VALLEY DISCOVERIES, INC., priority 2014, dated 2019)",
  "tested_on": "OVCAR3 ovarian cancer model",
  "assay": "M825 and M825-MMAE in OVCAR3 ovarian cancer model",
  "type": "in vivo, mouse",
  "conditions": "0.2 mg/kg, equivalent to maximum MMAE in the 10 mg/kg ADC group",
  "experimental": "Treatment initiated when tumor volume reached approximately 120 mm^3. M825 was given i.v. at 10 mg/kg and M825-MMAE was given i.v. at 1, 3, or 10 mg/kg, 2 times per week for 3.5 weeks. […] The 10 mg/kg ADC group was redosed on Day 56, 2 times per week.",
  "note": "Square brackets hold non-standard residues; d marks the D form. Peptide text beside a SMILES is read from it. * marks the point of attachment. Dolaproine = CO[C@@H]([C@@H]1CCCN1)[C@@H](C)C(=O)O; Dil = CC[C@H](C)[C@H](NC)[C@@H](CC(=O)O)OC; X1 = C[C@@H](N*)[C@@H](O)c1ccccc1; NMeV = CN[C@H](C(=O)O)C(C)C",
  "data": [
    {"compound": "CC[C@H](C)[C@@H]([C@@H](CC(=O)N1CCC[C@H]1[C@H](OC)[C@@H](C)C(=O)N[C@H](C)[C@@H](O)c1ccccc1)OC)N(C)C(=O)[C@@H](NC(=O)[C@@H](NC)C(C)C)C(C)C", "note": "[MMAE] (H-[NMeV]V[Dil][Dolaproine]-X1)", "values": [
      {"measurement": "tumor growth", "result": "No effect"}
    ]}
  ]
}
